Results taken from patent US20230049952A1, “METHODS AND COMPOUNDS FOR RESTORING MUTANT P53 FUNCTION” (PMV Pharmaceuticals, Inc., priority 2020, published 2023).
Several values for one entry are separate records, joined by “and”; a condition that tells them apart may be missing. Equal values may be shown once.

How the values were obtained:
[1] = biological target: CYP2C9 (Homo sapiens, UniProt P11712); test: in vitro; conditions: both, microsomes, pH 7.4, % of Control Enzyme Activity
[2] = Compound 2 and metabolites in rat plasma, 50 mg/kg PO QD×10; format: in vivo; conditions: for Average Concentration: rat plasma
Description: The proposed metabolite pathway was determined in vitro, and levels of potential metabolites were measured by LC/MS-MS in rat plasma remaining from the dose rising 10-day repeat dose study in rats. Six potential metabolites were quantified in the low (50 mg/kg) single dose rats. […] Rats were rotated between timepoints to form a composite PK curve. […] A 100 μL aliquot of the supernatant was transferred to the sample plate and mixed with 100 μL of water, then the plate was shaken at 800 rpm for 10 min. 0.5-2 μL supernatant was then injected into a Triple Quad 6500+ for LC-MS/MS analysis. The standard curve was generated at 1-3000 ng/mL for the compounds in rat plasma (EDTA-K2).
The male and female PK parameters were averaged together since there was <2-fold variation between the genders. All values deemed below the level of quantification (BLQ) were excluded from the PK parameters calculations.

[3] = in vitro
Description: All working solutions were freshly prepared similarly as described for the test article working solution.
Assay for determining Blood to plasma ratio: Pooled male CD-1 mouse, Sprague-Dawley rat, beagle dog and cynomolgus monkey plasma, and mixed gender human blood with EDTAK2 as anticoagulant were stored on wet ice and used the same day. […] After mixing thoroughly, 0.6 mL of spiked blood was transferred to a 96-well plate in triplicate. Concurrently, control compounds were spiked into each species blood in the same fashion to generate the final concentration of 2.0 μM.
The rest of the spiked blood samples were immediately placed into a humidified incubator with 5% CO2 at 37° C., with constant swiveling at 500 rpm for 60 min on a platform shaker. […] The T60-plasma samples for analysis were obtained by taking 50 μL of plasma from each well, mixed with 50 μL of blank blood and 100 μL of water, followed by addition of 600 μL stop solution. […] All the T0, T60-blood and T60-plasma samples were shaken vigorously at 800 rpm for 30 min followed by the centrifugation at 3220×g at 20° C. for 20 min. 100 μL aliquot of supernatant was diluted with 100 μL of water and mixed well for LC-MS/MS analysis.
Measurement of Hematocrit: The hematocrit (the volume percentage of erythrocytes in blood) was determined in triplicate for each species by centrifuging the blood samples with a HAEMATOKRIT 200 at 9440×g for 5 min.
Data analysis: The ratio of compound concentrations in whole blood over plasma (KB/P) and % Recovery in blood were calculated by the following equations: KB/P=[…]([T60-blood]/[T60-plasma]), where [T60-blood] is the peak area ratios of analyte/internal standard in whole blood sample at 60 min; [T60-plasma] is the peak area ratios of analyte/internal standard in plasma sample at 60 min; [T0-blood] is the peak area ratios of analyte/internal standard in whole blood sample at time zero.

[4] = Compound 2 50 mg/kg PO QD×10, 72 h post tenth dose
[5] = Compound 2 50 mg/kg PO QD×10, 96 h post tenth dose

Chain of CYP2C9 (P11712 whole entry): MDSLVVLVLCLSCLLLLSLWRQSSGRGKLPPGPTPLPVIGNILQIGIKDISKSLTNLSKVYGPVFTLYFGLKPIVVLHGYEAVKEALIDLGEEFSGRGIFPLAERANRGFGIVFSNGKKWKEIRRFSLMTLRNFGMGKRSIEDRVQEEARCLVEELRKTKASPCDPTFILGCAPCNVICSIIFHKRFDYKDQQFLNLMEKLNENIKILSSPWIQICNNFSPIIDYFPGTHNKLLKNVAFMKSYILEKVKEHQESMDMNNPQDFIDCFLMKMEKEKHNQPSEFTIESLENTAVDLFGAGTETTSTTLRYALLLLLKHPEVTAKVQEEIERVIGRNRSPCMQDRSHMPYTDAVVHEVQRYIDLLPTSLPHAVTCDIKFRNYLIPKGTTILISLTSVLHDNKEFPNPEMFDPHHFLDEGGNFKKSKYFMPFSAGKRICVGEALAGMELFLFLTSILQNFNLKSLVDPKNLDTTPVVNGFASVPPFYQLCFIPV

O=C(O)COc1ccc(C(=O)c2cccs2)c(Cl)c1Cl [Tienilic acid]
activity at 20 min, 0.123 µM [1]: 96.5%
activity at 20 min, 0.37 µM [1]: 80.1%
activity at 20 min, 3.33 µM [1]: 32.8%
activity at 20 min, 30 µM [1]: 8.14%
activity at 20 min, […] [1]: 101% and 57.4%
activity at 30 min, 0.123 µM [1]: 74.4%
activity at 30 min, 0.37 µM [1]: 36.8%
activity at 30 min, 3.33 µM [1]: 9.24%
activity at 30 min, 30 µM [1]: 3.84%

CCn1c(C#CCNc2ccc(C)nc2)cc2cc(CNC3CCOCC3)ccc21 [Compound 8, 3-{1-Ethyl-5-[(tetrahydro-2H-pyran-4-ylamino)methyl]-1H-indol-2-yl}-1-(6-methyl-3-pyridylamino)-2-propyne]
calculated concentration in rat plasma (individual rats) ([2]; Compound 2 50 mg/kg PO QD×1, 1 h, 50 mg/kg): 28.5 ng/mL and 16.5 ng/mL and 13.4 ng/mL and 8.05 ng/mL and 22.8 ng/mL and 22.6 ng/mL
calculated concentration in rat plasma (individual rats) ([2]; Compound 2 50 mg/kg PO QD×1, 2 h, 50 mg/kg): 88.9 ng/mL and 36.3 ng/mL and 32.5 ng/mL and 78.0 ng/mL and 62.0 ng/mL and 51.5 ng/mL
calculated concentration in rat plasma (individual rats) ([2]; Compound 2 50 mg/kg PO QD×1, 4 h, 50 mg/kg): 84.8 ng/mL and 81.1 ng/mL and 34.9 ng/mL and 38.5 ng/mL and 52.9 ng/mL and 58.3 ng/mL
calculated concentration in rat plasma (individual rats) ([2]; Compound 2 50 mg/kg PO QD×1, 8 h, 50 mg/kg): 77.5 ng/mL and 46.5 ng/mL and 86.3 ng/mL and 203 ng/mL and 87.6 ng/mL and 73.8 ng/mL
calculated concentration in rat plasma (individual rats) ([2]; Compound 2 50 mg/kg PO QD×1, 24 h, 50 mg/kg): 2.71 ng/mL and 1.20 ng/mL and 1.36 ng/mL and 2.31 ng/mL and 2.43 ng/mL and 1.25 ng/mL
calculated concentration in rat plasma (individual rats) ([2]; Compound 2 50 mg/kg PO QD×10, 1 h post tenth dose, 50 mg/kg): 16.5 ng/mL and 6.52 ng/mL and 10.4 ng/mL and 6.59 ng/mL and 46.7 ng/mL and 24.4 ng/mL
calculated concentration in rat plasma (individual rats) ([2]; Compound 2 50 mg/kg PO QD×10, 2 h post tenth dose, 50 mg/kg): 14.6 ng/mL and 17.1 ng/mL and 27.6 ng/mL and 38.9 ng/mL and 57.5 ng/mL and 24.2 ng/mL
calculated concentration in rat plasma (individual rats) ([2]; Compound 2 50 mg/kg PO QD×10, 4 h post tenth dose, 50 mg/kg): 39.0 ng/mL and 39.4 ng/mL and 22.5 ng/mL and 92.1 ng/mL and 65.1 ng/mL and 19.9 ng/mL
calculated concentration in rat plasma (individual rats) ([2]; Compound 2 50 mg/kg PO QD×10, 8 h post tenth dose, 50 mg/kg): 29.5 ng/mL and 35.5 ng/mL and 57.2 ng/mL and 121 ng/mL and 135 ng/mL and 67.6 ng/mL
calculated concentration in rat plasma (individual rats) ([2]; Compound 2 50 mg/kg PO QD×10, 24 h post tenth dose, 50 mg/kg): 1.63 ng/mL and 2.61 ng/mL and 2.12 ng/mL and 10.6 ng/mL and 7.70 ng/mL and 8.00 ng/mL
calculated concentration in rat plasma (individual rats) ([2]; Compound 2 50 mg/kg PO QD×10, 48 h post tenth dose, 50 mg/kg): BLQ (4×) and 1.01 ng/mL and 1.21 ng/mL
calculated concentration in rat plasma (individual rats) [2, 4]: BLQ
calculated concentration in rat plasma (individual rats) [2, 5]: BLQ
% of Parent ([2]; Day 1, of Compound 2 AUC0-24, rat, 50 mg/kg PO): 1.6%
AUC0-24 ([2]; Day 1, rat, Compound 2 50 mg/kg PO): 1254 ng·h/mL
% of Parent ([2]; Day 10, of Compound 2 AUC0-last, rat, 50 mg/kg PO QD×10): 0.9%
AUC0-last ([2]; Day 10, rat, Compound 2 50 mg/kg PO QD×10): 1021 ng·h/mL
Average Concentration ([2]; Compound 2 50 mg/kg PO QD×1, 1 h): 18.64 ng/mL
Average Concentration ([2]; Compound 2 50 mg/kg PO QD×1, 2 h): 58.20 ng/mL
Average Concentration ([2]; Compound 2 50 mg/kg PO QD×1, 4 h): 58.42 ng/mL
Average Concentration ([2]; Compound 2 50 mg/kg PO QD×1, 8 h): 95.78 ng/mL
Average Concentration ([2]; Compound 2 50 mg/kg PO QD×1, 24 h): 1.88 ng/mL
Average Concentration ([2]; Compound 2 50 mg/kg PO QD×10, 1 h post tenth dose): 18.52 ng/mL
Average Concentration ([2]; Compound 2 50 mg/kg PO QD×10, 2 h post tenth dose): 29.98 ng/mL
Average Concentration ([2]; Compound 2 50 mg/kg PO QD×10, 4 h post tenth dose): 46.33 ng/mL
Average Concentration ([2]; Compound 2 50 mg/kg PO QD×10, 8 h post tenth dose): 74.30 ng/mL
Average Concentration ([2]; Compound 2 50 mg/kg PO QD×10, 24 h post tenth dose): 5.44 ng/mL
Average Concentration ([2]; Compound 2 50 mg/kg PO QD×10, 48 h post tenth dose): 1.11 ng/mL
Average Concentration [2, 4]: BLQ
Average Concentration [2, 5]: BLQ

CCN(CC)CCCC(C)Nc1ccnc2cc(Cl)ccc12 (centres unmarked) [Chloroquine, chloroquine]
recovery at 60 min, 2 μM ([3]; both, human): 90.8 ± 6.07%
recovery at 60 min, 2 μM ([3]; male, CD-1, mouse): 99.4 ± 1.7%
recovery at 60 min, 2 μM ([3]; male, Sprague-Dawley, rat): 100 ± 1.86%
recovery at 60 min, 2 μM ([3]; male, beagle, dog): 113 ± 3.57%
recovery at 60 min, 2 μM ([3]; male, cynomolgus monkey): 96.9 ± 1.83%
